The target of this assay is T1, oxidase type xanthine oxidase (derived from buttermilk) (Bos taurus, UniProt P80457).
T1 construct: oxidase type xanthine oxidase (derived from buttermilk, supplied by Calbiochem Novabiochem Corp.); purchased Calbiochem Novabiochem Corp; host or cells: buttermilk (natural source)
The experiment in a line: Xanthine oxidase inhibitory activity (absorbance change at 290 nm). It counts as biochemical. Conditions: xanthine substrate, 100 mM phosphate buffer, absorbance at 290 nm for 5 minutes; read-out: Inhibitory Activity (50% inhibitory concentration with respect to oxidase type xanthine oxidase). The protocol: The xanthine oxidase inhibitory activity was measured for the compounds synthesized according to the above Examples.
After a test compound was dissolved in DMSO (manufactured by Sigma Co.) so that the concentration is 20 mM, the test compound was prepared and used at a desired concentration at the time of use.
The evaluation of the xanthine oxidase inhibitory activity of the compounds of the present invention was conducted by partially modifying the method described in the literature (Method Enzymatic Analysis, 1, 521-522, 1974). The present evaluation is based on the oxidase type xanthine oxidase inhibitory activity evaluation. That is, a xanthine (manufactured by Sigma Co.) solution prepared at 10 mM in advance using a 20 mM sodium hydroxide solution was adjusted to 30 μM using a 100 mM phosphate buffer solution, and 75 μL/well of each solution was added into a 96-well plate. Aliquots (1.5 μL/well) of each test sample, which was diluted with DMSO so that the concentration is 100 times the final concentration, were added into a 96-well plate, and after mixing, the absorbance at 290 nm was measured by a microplate reader SPECTRA MAX Plus 384 (manufactured by Molecular Devices, LLC). Subsequently, oxidase type xanthine oxidase (derived from buttermilk, supplied by Calbiochem Novabiochem Corp.) was prepared at 30.6 mU/mL using a 100 mM phosphate buffer solution and 73.5 μL/well of each solution was added. Immediately after mixing, the change in absorbance at 290 nm was measured for 5 minutes. The enzyme activity when DMSO was used instead of a test compound solution was defined as 100%, the inhibitory rate of the test compounds was calculated and the 50% inhibitory concentration with respect to oxidase type xanthine oxidase was calculated by fitting to the dose-response curve.
Note that the symbols (+, ++, +++) in the table represent inhibitory activity values as shown below.

T1 sequence (P80457 whole entry): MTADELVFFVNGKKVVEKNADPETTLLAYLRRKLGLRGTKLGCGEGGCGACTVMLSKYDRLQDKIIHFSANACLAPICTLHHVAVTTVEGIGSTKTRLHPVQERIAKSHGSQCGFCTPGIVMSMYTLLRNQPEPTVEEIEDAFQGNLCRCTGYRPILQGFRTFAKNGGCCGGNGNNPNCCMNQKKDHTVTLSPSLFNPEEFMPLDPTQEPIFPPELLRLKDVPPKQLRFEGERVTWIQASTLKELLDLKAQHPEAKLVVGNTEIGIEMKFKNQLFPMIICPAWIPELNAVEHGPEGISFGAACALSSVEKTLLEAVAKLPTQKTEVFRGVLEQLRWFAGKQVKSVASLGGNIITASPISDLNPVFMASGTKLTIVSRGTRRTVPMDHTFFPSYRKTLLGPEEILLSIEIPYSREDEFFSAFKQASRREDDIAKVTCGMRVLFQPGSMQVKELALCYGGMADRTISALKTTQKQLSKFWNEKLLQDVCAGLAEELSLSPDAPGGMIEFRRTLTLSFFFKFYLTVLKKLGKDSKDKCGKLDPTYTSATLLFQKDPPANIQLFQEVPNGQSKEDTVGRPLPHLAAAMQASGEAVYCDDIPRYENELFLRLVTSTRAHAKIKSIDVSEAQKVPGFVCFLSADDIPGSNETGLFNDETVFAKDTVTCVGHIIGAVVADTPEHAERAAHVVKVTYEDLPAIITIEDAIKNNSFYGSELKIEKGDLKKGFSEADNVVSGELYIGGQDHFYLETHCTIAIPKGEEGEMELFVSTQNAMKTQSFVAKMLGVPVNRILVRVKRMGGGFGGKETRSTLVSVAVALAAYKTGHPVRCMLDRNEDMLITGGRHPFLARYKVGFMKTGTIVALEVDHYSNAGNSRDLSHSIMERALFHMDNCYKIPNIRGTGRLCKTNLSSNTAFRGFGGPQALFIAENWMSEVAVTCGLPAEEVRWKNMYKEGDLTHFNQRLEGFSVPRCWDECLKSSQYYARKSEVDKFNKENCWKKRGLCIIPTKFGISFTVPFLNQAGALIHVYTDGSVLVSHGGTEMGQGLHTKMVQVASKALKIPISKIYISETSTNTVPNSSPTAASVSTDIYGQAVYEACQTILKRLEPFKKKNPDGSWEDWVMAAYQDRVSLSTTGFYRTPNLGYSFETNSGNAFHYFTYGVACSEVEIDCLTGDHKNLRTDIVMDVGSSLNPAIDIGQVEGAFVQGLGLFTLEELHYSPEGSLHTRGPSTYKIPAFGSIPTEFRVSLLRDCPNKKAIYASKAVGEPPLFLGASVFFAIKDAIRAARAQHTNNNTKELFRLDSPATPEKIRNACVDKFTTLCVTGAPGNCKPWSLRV

For the compound `CC(C)c1ccc(-c2cnc(-n3cc(C(=O)O)cn3)cc2C#N)cc1` [Compound 47, 1-[4-cyano-5-[4-(propane-2-yl)phenyl]pyridin-2-yl}-1H-pyrazole-4-carboxylic acid], the IC50 was in the range of 1 to 5 nM.

With `COc1ccc(F)c(-c2cnc(-n3cc(C(=O)O)c(N)n3)cc2C#N)c1` [Compound 107, 3-amino-1-[4-cyano-5-(2-fluoro-5-methoxyphenyl)pyridine-2-yl]-1H-pyrazole-4-carboxylic acid], the IC50 lay in the range of 1 to 5 nM. The figure for `N#Cc1cc(-n2cc(C(=O)O)cn2)ncc1-c1ccc2ccccc2c1` [Compound 57, 1-[4-cyano-5-(naphthalen-2-yl)pyridin-2-yl]-1H-pyrazole-4-carboxylic acid] is 1 to 5 nM; for `Cc1cccc(-c2cnc(-n3cc(C(=O)O)cn3)cc2C#N)c1F` [Compound 36, 1-[4-cyano-5-(2-fluoro-3-methylphenyl)pyridin-2-yl]-1H-pyrazole-4-carboxylic acid] it is 1 to 5 nM. `Cc1cc(-c2ccc(-n3cc(C(=O)O)cn3)nc2C#N)ccc1F` [Compound 94, 1-[6-cyano-5-(4-fluoro-3-methylphenyl)pyridin-2-yl]-1H-pyrazole-4-carboxylic acid]: the IC50 was no less than 10 nM. As to `N#Cc1cc(-n2cc(C(=O)O)cn2)ncc1-c1ccc(Oc2ccccc2)cc1` [Compound 54, 1-[4-cyano-5-(4-phenoxyphenyl)pyridin-2-yl]-1H-pyrazole-4-carboxylic acid], the IC50 lay within 1 to 5 nM.

Regarding `N#Cc1cc(-n2cc(C(=O)O)c(N)n2)ncc1-c1ccccc1` [Compound 97, 3-amino-1-(4-cyano-5-phenylpyridin-2-yl)-1H-pyrazole-4-carboxylic acid], the IC50 is 1 to 5 nM. The figure for `N#Cc1cc(-n2cc(C(=O)O)c(N)n2)ncc1-c1ccc(F)cc1F` [Compound 105, 3-amino-1-[4-cyano-5-(2,4-difluorophenyl)pyridin-2-yl]-1H-pyrazole-4-carboxylic acid] is 1 to 5 nM; for `COc1ccc(F)c(-c2ccc(-n3cc(C(=O)O)cn3)nc2C#N)c1` [Compound 91, 1-[6-cyano-5-(2-fluoro-5-methoxyphenyl)pyridin-2-yl]-1H-pyrazole-4-carboxylic acid] it is 5 to 10 nM; for `N#Cc1cc(-n2cc(C(=O)O)cn2)ncc1-c1ccc(C(=O)c2ccccc2)cc1` [Compound 73, 1-[5-(4-benzoylphenyl)-4-cyanopyridin-2-yl]-1H-pyrazole-4-carboxylic acid] it is 1 to 5 nM. The figure for `N#Cc1cc(-n2cc(C(=O)O)cn2)ncc1-c1ccccc1C(F)(F)F` [Compound 8, 1-{4-cyano-5-[2-(trifluoromethyl)phenyl]pyridin-2-yl}-1H-pyrazole-4-carboxylic acid] is no less than 10 nM; for `N#Cc1nc(-n2cc(C(=O)O)cn2)ccc1-c1c(F)cccc1F` [Compound 95, 1-[6-cyano-5-(2,6-difluorophenyl)pyridin-2-yl]-1H-pyrazole-4-carboxylic acid] it is 5 to 10 nM; for `N#Cc1cc(-n2cc(C(=O)O)cn2)ncc1-c1ccc(C(=O)N2CCOCC2)cc1` [Compound 70, 1-(4-cyano-5-{4-[(morpholine-4-yl)carbonyl]phenyl}pyridine-2-yl)-1H-pyrazole-4-carboxylic acid] it is 1 to 5 nM. Regarding `N#Cc1cc(-n2cc(C(=O)O)cn2)ncc1-c1cccc(F)c1` [Compound 11, 1-[4-cyano-5-(3-fluorophenyl)pyridin-2-yl]-1H-pyrazole-4-carboxylic acid], the IC50 was in the range of 5 to 10 nM. The figure for `N#Cc1cc(-n2cc(C(=O)O)cn2)ncc1-c1cccc(Cl)c1F` [Compound 41, 1-[4-cyano-5-(3-chloro-2-fluorophenyl)pyridin-2-yl]-1H-pyrazole-4-carboxylic acid] is 1 to 5 nM. `N#Cc1cc(-n2cc(C(=O)O)cn2)ncc1-c1ccc(OCc2ccccc2)cc1` [Compound 66, 1-{5-[4-(benzyloxy)phenyl]-4-cyanopyridine-2-yl}-1H-pyrazole-4-carboxylic acid]: the IC50 was 1 to 5 nM.

The record behind these values is patent publication US9617240B2 (TEIJIN PHARMA LIMITED, priority 2013, dated 2017).
